Laboratory results from US8691762B2, “Methods and assays for treating subjects with SHANK3 deletion, mutation or reduced expression” (Mount Sinai School of Medicine, priority 2010, dated 2014).
“Also recorded” adds a separate entry of the source.

Key:
[1] = tested on: Shank3 heterozygous mice; assay: Long-term potentiation at Schaffer collateral-CA1 synapses, hippocampal slices from treated Shank3 heterozygous mice; format: in vivo, mouse; conditions: for LTP (normalized field EPSP slope), higher dose: rhIGF-1 i.p. 240 μg/kg/day for 2 weeks from P13-15
Method: FIG. 8. […] Ampakine CX1837 or HPCD vehicle is administered daily via i.p. injections (1.5 mg/kg body weight) starting at 2 weeks old and continued for 4 weeks for electrophysiological recordings.
(§1) FIG. 10A-10B. Recombinant human IGF-1 (rhIGF-1) reverses deficits in long-term potentiation and basal synaptic properties at Schaffer collateral-CA1 synapses in Shank3 heterozygous mice in a dose-dependent fashion. rhIGF-1 is administered daily via i.p. injections (120 or 240 μg/kg body weight) starting at P13-15 and continued for 2 weeks for electrophysiological recordings. A. LTP was induced with high-frequency stimulation and normalized field EPSP slope was plotted as a function of time. […] B. AMPA receptor responses were assessed in the mice. Slices were incubated in the presence of APV and mean field EPSP slope as a function of fiber volley is shown for slices derived from wildtype (WT), Shank3 heterozygous (Het) mice, and Het injected with rhIGF-1. Deficits in AMPA receptor signaling observed in Shank3 heterozygotes were reversed with 2-week rhIGF-1 treatment.

[2] = tested on: AMPA receptor; assay: AMPA receptor component of I/O function (field EPSP slope vs fiber volley in presence of APV); format: in vivo, mouse; conditions: Shank3 Het
Method: as §1
IGF-1 has been approved for clinical use as a recombinant full-length protein. Full-length IGF-1 enters the CNS through an interaction with lipoprotein-related receptor 1 (LRP1), after activity dependent cleavage of IGF binding protein-3 (IGFBP-3) by matrix metalloproteinase-9 (MMP9) (Nishijima et al., 2010). […]

[3] = tested on: Akt; assay: Western blot for total- and phospho-Akt in hippocampus; format: in vivo, mouse
From the text: FIG. 6. IGF1 treatment activates PI3K-Akt pathway in the hippocampus. PI3K binds to AMPARs and is required to maintain AMPAR surface expression during long-term potentiation.
It is interesting to note that IGF-1 activates the mTOR/Akt pathway as this has been implicated in other neurodevelopmental disorders (Veenstra-Vanderweele et al., 2012).

[4] = tested on: Shank3 heterozygous mice; assay: Motor performance and learning, latency to fall off a rotating rod; format: in vivo, mouse; conditions: IGF-1 240 μg/kg/day for 2 weeks; male Shank3 Het vs vehicle
Method: FIG. 11. IGF-1 treatment reverses motor deficits in Shank3 heterozygous mice.
Phelan-McDermid syndrome frequently presents with hypotonia and at least transient motor deficits, and subtle motor deficits have been observed in Shank3-heterozygous mice (Bozdagi et al., 2010). To determine whether treatment with full-length IGF-1 may improve motor performance in Shank3-deficient mice, male heterozygous mice were treated with either vehicle or IGF-1 (240 μg/kg/day for 2 weeks).

[5] = tested on: Shank3 KO mice; conditions: (1-3)IGF-1 peptide, same protocol as heterozygotes, N=2
Method: Brief experimental procedures: Hippocampal slices (350 μm) are prepared from 1-3 month old Shank3 heterozygous, Shank3 knockout, and wildtype littermates, treated with (1-3) IGF-1 peptide, full-length IGF1, growth hormone, AMPAkine or saline or other appropriate control. Slices are perfused with Ringer's solution, bubbled with 95% O2/5% CO2, at 32° C., during extracellular recordings. Baseline of field excitatory postsynaptic potentials (fEPSPs) recorded from stratum radiatum in area CA1, evoked by stimulation of the Schaffer collateral-commissural afferents with bipolar tungsten electrodes placed into area CA3. Long-term potentiation (LTP) is induced either by a high-frequency stimulus (four trains of 100 Hz, 1 s stimulation separated by 5 min), or by theta-burst stimulation (TBS) (10 bursts of four pulses at 100 Hz separated by 200 ms), with a success rate >90% for control and genetically-modified animals with all stimulation protocols. To induce long-term depression (LTD), Schaffer collaterals were stimulated by a low frequency stimulus (900 pulses at 1 Hz for 15 min) or paired-pulse low frequency stimulus. LTD was induced with a success rate >90% for control animals. […]

Row | Substance | LTP (normalized field EPSP slope), lower dose ([1]; rhIGF-1 i.p. 120 μg/kg/day for 2 weeks, Shank3 Het) | LTP (normalized field EPSP slope), higher dose ([1]; Shank3 Het) | LTP (normalized field EPSP slope), higher dose ([1]; Shank3 Het, listed as rhIGF-1) | Mean slope of the I/O function (AMPA receptor component) ([2]; IGF-1 240 μg/kg/day i.p. 2 weeks, wildtype 0.625±0.08, untreated Het 0.31±0.045, p=0.004) | Deficits in AMPA receptor signaling (AMPA component of I/O function) ([2]; rhIGF-1 i.p. 240 μg/kg/day for 2 weeks, slices in APV) | phospho-Akt/Akt ratio ([3]; hippocampal lysates, Shank3 Het injected 2 weeks, n=10, vehicle 0.36±0.03 (n=8), 1-tailed p=0.040) | phosphorylation of Akt (pAkt1) ([3]; hippocampus, heterozygote mice, vs vehicle injected, n=3, P=0.0366) | Latency to fall off rotating rod / motor performance [4] | LTP (normalized field EPSP slope) ([1]; (1-3)IGF-1 i.p. 0.01 mg/g (10 μg/g/day) daily for 2 weeks from P13-15, Shank3 Het vs vehicle) | LTP (fEPSP versus time) [5]
1 | IGF-1: recombinant human IGF-1, a 7.6 kDa protein, SEQ ID NO:3 | not associated with significant reversal | effective in rescuing defective LTP | reversed by the higher | 0.618±0.075 | reversed | 0.55±0.04 | increase | significantly longer latencies; also recorded: Significant enhancement of motor performance |  | 
2 | glycine-proline-glutamic acid [(1-3)IGF-1] |  |  |  |  |  |  |  |  | reversed; also recorded: restored normal hippocampal LTP | reversed the impairment in LTP
